# According to patent US12215173B2, “Kappa opioid receptor peptide amide ligands” (priority 2019, dated 2025):
# Square brackets hold non-standard residues; d marks the D form. Peptide text beside a SMILES is read from it. * marks the point of attachment. ξ: configuration not given here. Piperidin1yl(4-NH2,4-CO2Me) = COC(=O)C1(N)CCN(*)CC1; Pyrrolidinyl(3-NH2,3-CO2Me) = COC(=O)C1(N)CCN(*)C1; Tic = O=C(O)[C@@H]1Cc2ccccc2CN1; Aic = NC1(C(=O)O)Cc2ccccc2C1; ξL = CC(C)CC(N)C(=O)O
# Legend:
# [1] = molecular target: recombinant human kappa (KOR) opioid receptor (Homo sapiens (Human), UniProt P41145); experiment: biochemical; format: binding; settings: HEK293 cell membranes, 0.5 nM [3H]diprenorphine
# [2] = molecular target: recombinant human mu (MOR) opioid receptor (Homo sapiens (Human), UniProt P35372); experiment: Opioid receptor radioligand binding assay, MOR; settings: HEK293 cell membranes, 0.5 nM [3H]DAMGO; read-out: MOR, IC50
# [3] = molecular target: recombinant human delta (DOR) opioid receptor (Homo sapiens (Human), UniProt P41143); experiment: Opioid receptor radioligand binding assay, DOR; settings: HEK293 cell membranes, 0.5 nM [3H]DADLE; read-out: DOR, IC50
# recombinant human delta (DOR) opioid receptor, sequence (P41143 whole entry, looked up): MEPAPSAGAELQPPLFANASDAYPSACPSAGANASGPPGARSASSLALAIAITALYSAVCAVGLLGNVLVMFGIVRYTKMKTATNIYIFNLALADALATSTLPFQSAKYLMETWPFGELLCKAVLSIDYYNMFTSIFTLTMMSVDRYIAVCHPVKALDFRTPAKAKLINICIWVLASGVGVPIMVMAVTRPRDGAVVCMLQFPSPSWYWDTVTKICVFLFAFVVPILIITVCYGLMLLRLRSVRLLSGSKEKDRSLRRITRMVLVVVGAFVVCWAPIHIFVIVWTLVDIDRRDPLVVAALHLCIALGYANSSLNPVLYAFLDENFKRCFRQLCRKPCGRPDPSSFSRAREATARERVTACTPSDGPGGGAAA
SMILES,IC50 [1] [µM],IC50 [2] [µM],IC50 [3] [µM]
"COC(=O)C1(N)CCN(C(=O)[C@@H](CCCCN)NC(=O)[C@@H](CC(C)C)NC(=O)[C@@H]2Cc3ccccc3CN2C(=O)[C@H](N)Cc2ccccc2)C1 (stereo partly drawn) [Compound 146] (H-[dF][Tic][dL][dK]-{Pyrrolidinyl(3-NH2,3-CO2Me)})",0.164,> 10,> 10
"COC(=O)C1(N)CCN(C(=O)[C@@H](CCCCN)NC(=O)C(CC(C)C)NC(=O)[C@@H](Cc2ccccc2)NC(=O)C2(N)Cc3ccccc3C2)CC1 (stereo partly shown) [Compound 158] (H-[Aic][dF][ξL][dK]-{Piperidin1yl(4-NH2,4-CO2Me)})",0.0009,5.37,> 10
CC(C)C[C@@H](NC(=O)[C@@H](Cc1ccccc1)NC(=O)[C@H](N)Cc1ccccc1)C(=O)N[C@H](CCCCN)C(=O)N1CCN(C(=O)/C=C/C(=O)O)CC1 [Compound 13-25],0.00556,> 10,> 10
CCCN(C(=O)OC)C1CCN(C(=O)[C@@H](CCCCN)NC(=O)[C@@H](CC(C)C)NC(=O)[C@@H](Cc2ccccc2)NC(=O)[C@H](N)Cc2ccccc2)CC1 [Compound 13-49],0.00046,> 10,> 10
CC(C)C[C@@H](NC(=O)[C@@H](Cc1ccccc1)NC(=O)[C@H](N)Cc1ccccc1)C(=O)N[C@H](CCCCN)C(=O)N1CCC(NC(=O)C(N)=O)CC1 [Compound 13-33],0.00054,> 10,> 10
"COC(=O)C1(N)CCN(C(=O)[C@@H](CCCNC(=N)N)NC(=O)[C@H]2CCCN2C(=O)[C@@H](Cc2ccccc2)NC(=O)[C@H](N)Cc2ccccc2)CC1 [Compound 22] (H-[dF][dF][dP][dR]-{Piperidin1yl(4-NH2,4-CO2Me)})",0.2,5.07,> 10
CC(C)C[C@@H](NC(=O)[C@@H](Cc1ccccc1)NC(=O)[C@H](N)Cc1ccccc1)C(=O)N[C@H](CCCCN)C(=O)N1CCC2(CC1)CNC(=O)N2 [Compound 13-46],0.00031,> 10,> 10
CC(C)C[C@@H](NC(=O)[C@@H](Cc1ccccc1)NC(=O)[C@H](N)Cc1ccccc1)C(=O)N[C@H](CCCCN)C(=O)NCc1ccncc1O [Compound 13-11],0.00091,> 10,> 10
COCCN(CCOC)C(=O)[C@@H](CCCCN)NC(=O)[C@@H](CC(C)C)NC(=O)[C@@H](Cc1ccccc1)NC(=O)[C@H](N)Cc1ccccc1 [Compound 13-3],0.0281,> 10,> 10
"COC(=O)C1(N)CCN(C(=O)[C@@H](CCCCN)NC(=O)C(CC(C)C)NC(=O)[C@@H](Cc2ccccc2)NC(=O)C2(N)Cc3ccccc3C2)C1 (stereo partly shown) [Compound 156] (H-[Aic][dF][ξL][dK]-{Pyrrolidinyl(3-NH2,3-CO2Me)})",0.0023,5.37,> 10
CCCC[C@@H](NC(=O)[C@@H](Cc1ccccc1)NC(=O)[C@H](N)Cc1ccccc1)C(=O)N[C@H](Cc1cnc(N)nc1)C(=O)N1CCC(N)(C(=O)OC)C1 (stereo partly shown) [Compound 82],0.0425,5.17,> 10
"COC(=O)C1(N)CCN(C(=O)[C@@H](CCCCN)NC(=O)[C@H]2CCCN2C(=O)[C@@H](Cc2ccccc2)NC(=O)[C@H](N)Cc2ccccc2)C1 (stereo partly shown) [Compound 92] (H-[dF][dF][dP][dK]-{Pyrrolidinyl(3-NH2,3-CO2Me)})",0.033,> 10,> 10
CC(C)C[C@@H](NC(=O)[C@@H](Cc1ccccc1)NC(=O)[C@H](N)Cc1ccccc1)C(=O)N[C@H](CCCCN)C(=O)N1CCC(NC(=O)C(N)=O)CC1 [Compound 13-57],,,> 10
"COC(=O)C1(N)CCN(C(=O)[C@@H](CCCCN)NC(=O)[C@H]2CCCN2C(=O)[C@@H](Cc2ccccc2)NC(=O)[C@H](N)Cc2ccccc2)CC1 [Compound 89] (H-[dF][dF][dP][dK]-{Piperidin1yl(4-NH2,4-CO2Me)})",> 0.2,> 10,> 10
